Reference: patent US9464084B2, “P2X7 modulators” (Janssen Pharmaceutica NV, priority 2013, dated 2016)

Assays:
Assay type in all cases: cell-based
P2X7 [1] = target: T1, P2X7 (Homo sapiens (Human), UniProt Q99572); test: P2X7 antagonism in human PBMCs (LPS + Bz-ATP induced IL-1β release, ELISA); conditions: LPS 30 ng/ml, Bz-ATP 0.5 mM; for PBMC 10 μM (% control): compound 10 μM; for PBMC 1 μM (% control): compound 1 μM;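 as to all read-outs here: PBMCs from donor human blood, with a further 1.5 h incubation of the cells in the assay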
Procedure: Human blood was collected using a blood donor program. PBMCs were isolated from blood using a Ficoll density gradient technique. Briefly, blood was laid on Ficoll solution and centrifuged at RT for 20 minutes at 2000 rpm. The buffy layer (between red blood cells and plasma) was carefully collected by aspiration, washed with PBS and centrifuged again at 1500 rpm for 15 minutes. The resulting cell pellet was washed and plated on 96 well-plates for experiments. For the Mouse/Human Whole Blood experiments, 150 μl of either mouse or human blood was platted on 96 well-plates. Lipopolysaccharide (LPS) (30 ng/ml) was added to each well and incubated for 1 hour. Test compounds were then added and incubated for 30 minutes. The P2X7 agonist, 2′(3′)-O-(4-benzoylbenzoyl) adenosine 5′ triphosphate (Bz-ATP) was then added at a final concentration of 0.5 mM (PBMC) or 1 mM (blood). Cells were incubated for an additional 1.5 hours. At that point, supernatant was collected and stored for IL-1β assay using manufacturer's protocol for enzyme-linked immunosorbent assay (ELISA). Data was expressed as percent control, where control is defined as the difference in IL-1β release in LPS+Bz-ATP samples and LPS only samples. Data was plotted as response (% control) versus concentration to generate IC50 values.

rat P2X7 = rat P2X7 (Rattus norvegicus (Rat), UniProt Q64663); test: Ca2+ flux (FLIPR) in 1321N1 cells expressing recombinant rat P2X7 channel; conditions: 250 μM BzATP;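 also: Calcium-4 dye fluorescence change read 180 s after agonist addition, following 30 min cell preincubation with test compound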
Procedure: (§1) Cells were seeded at a density of 25000 cells/well (96-well clear bottom black walled plates) in 100 μl volume/well. On the day of the experiment, cell plates were washed with assay buffer, containing (in mM): 130 NaCl, 2 KCl, 1 CaCl2, 1 MgCl2, 10 HEPES, 5 glucose; pH 7.40 and 300 mOs. After the wash, cells were loaded with the Calcium-4 dye (Molecular Device) and incubated in the dark for 60 minutes. Test compounds were prepared at 250× the test concentration in neat DMSO. Intermediate 96-well compound plates were prepared by transferring 1.2 μL of the compound into 300 μL of assay buffer. A further 3× dilution occurred when transferring 50 μL/well of the compound plate to 100 μL/well in the cell plate. Cells were incubated with test compounds and dye for 30 minutes. […] The fluorescence change was measured 180 seconds after adding the agonist.

P2X7 [2] = target: T1, P2X7; test: Ca2+ flux (FLIPR) in 1321N1 cells expressing recombinant human P2X7 channel; conditions: 250 μM BzATP;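 also: Calcium-4 dye-loaded cells exposed to compound for 30 min before agonist addition, fluorescence change read 180 s after agonist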
Procedure: as §1

Sequence of rat P2X7 (Q64663 whole entry): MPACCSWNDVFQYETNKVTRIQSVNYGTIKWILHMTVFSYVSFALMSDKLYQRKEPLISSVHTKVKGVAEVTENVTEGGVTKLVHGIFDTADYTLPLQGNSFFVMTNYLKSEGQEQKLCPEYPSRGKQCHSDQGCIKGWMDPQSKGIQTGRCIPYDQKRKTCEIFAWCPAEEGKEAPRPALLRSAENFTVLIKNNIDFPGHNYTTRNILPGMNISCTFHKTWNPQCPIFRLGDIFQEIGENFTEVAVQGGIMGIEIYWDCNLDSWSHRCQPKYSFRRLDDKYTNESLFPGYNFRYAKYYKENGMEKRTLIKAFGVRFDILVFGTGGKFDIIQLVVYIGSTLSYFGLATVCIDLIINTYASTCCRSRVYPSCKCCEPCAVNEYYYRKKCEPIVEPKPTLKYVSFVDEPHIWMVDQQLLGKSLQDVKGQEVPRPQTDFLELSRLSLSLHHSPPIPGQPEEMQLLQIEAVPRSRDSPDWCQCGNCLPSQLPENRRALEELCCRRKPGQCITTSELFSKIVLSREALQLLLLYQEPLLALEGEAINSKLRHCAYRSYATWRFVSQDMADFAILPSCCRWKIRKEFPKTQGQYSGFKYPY
T1 sequence (Q99572 whole entry): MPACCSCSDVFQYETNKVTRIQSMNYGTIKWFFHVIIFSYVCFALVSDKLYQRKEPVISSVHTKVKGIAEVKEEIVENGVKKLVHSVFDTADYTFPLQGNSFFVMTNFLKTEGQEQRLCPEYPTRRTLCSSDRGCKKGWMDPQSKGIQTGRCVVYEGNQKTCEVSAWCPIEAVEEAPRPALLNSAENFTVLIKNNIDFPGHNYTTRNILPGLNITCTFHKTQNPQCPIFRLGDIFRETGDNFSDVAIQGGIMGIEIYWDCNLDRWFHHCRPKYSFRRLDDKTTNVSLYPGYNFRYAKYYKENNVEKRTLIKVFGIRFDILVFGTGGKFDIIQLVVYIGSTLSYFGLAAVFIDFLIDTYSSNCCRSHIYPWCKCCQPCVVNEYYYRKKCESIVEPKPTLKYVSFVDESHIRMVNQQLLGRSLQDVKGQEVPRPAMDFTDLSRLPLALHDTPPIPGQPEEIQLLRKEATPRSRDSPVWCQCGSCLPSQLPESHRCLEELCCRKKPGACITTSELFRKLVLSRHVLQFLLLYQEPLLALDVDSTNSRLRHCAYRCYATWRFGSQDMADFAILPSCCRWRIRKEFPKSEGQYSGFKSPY

| SMILES | PBMC 10 μM (% control) (P2X7 [1]) | IC50 (rat P2X7) [µM] | IC50 (P2X7 [2]) [µM] | PBMC 1 μM (% control) (P2X7 [1]) |
| --- | --- | --- | --- | --- |
| Cc1c(C(=O)N2Cc3nnn(-c4cc[nH]n4)c3CC2C)cccc1C(F)(F)F (stereo not drawn) [Example 154, (6-methyl-1-(1H-pyrazol-3-yl)-6,7-dihydro-1H-[1,2,3]triazolo[4,5-c]pyridin-5(4H)-yl)(2-methyl-3-(trifluoromethyl)phenyl)methanone] | −0.6 | 0.0102 | 0.0165 | – |
| Cn1nc2c(c1-c1ccncc1)CCN(C(=O)c1cccc(C(F)(F)F)c1Cl)C2 [Example 327, (2-chloro-3-(trifluoromethyl)phenyl)(2-methyl-3-(pyridin-4-yl)-4,5-dihydro-2H-pyrazolo[3,4-c]pyridin-6(7H)-yl)methanone] | – | > 10 | > 10 | 93.1 |
| CCc1cccnc1-n1nnc2c1CCN(C(=O)c1cccc(C(F)(F)F)c1)C2C (stereo not drawn) [Example 295, (1-(3-ethylpyridin-2-yl)-4-methyl-6,7-dihydro-1H-[1,2,3]triazolo[4,5-c]pyridin-5(4H)-yl)(3-(trifluoromethyl)phenyl)methanone] | 10.1 | > 10 | > 10 | – |
| C[C@H]1Cc2c(nnn2-c2ncc(F)cn2)CN1C(=O)c1cc(F)cc(C(F)(F)F)c1 [Example 307, (S)-(3-fluoro-5-(trifluoromethyl)phenyl)(1-(5-fluoropyrimidin-2-yl)-6-methyl-6,7-dihydro-1H-[1,2,3]triazolo[4,5-c]pyridin-5(4H)-yl)methanone] | 2.2 | 10.7 | > 10 | – |
| Cn1nccc1-n1nnc2c1CCN(C(=O)c1cccc(C(F)(F)F)c1Cl)C2 [Example 128, (2-Chloro-3-(trifluoromethyl)phenyl)(1-(1-methyl-1H-pyrazol-5-yl)-6,7-dihydro-1H-[1,2,3]triazolo[4,5-c]pyridin-5(4H)-yl)methanone] | 23.1 | > 10 | 2.11 | – |
| CC1c2nnn(-c3cncnc3)c2CCN1C(=O)c1cccc(C(F)(F)F)c1Cl (stereo not drawn) [Example 177, (2-Chloro-3-(trifluoromethyl)phenyl)(4-methyl-1-(pyrimidin-5-yl)-6,7-dihydro-1H-[1,2,3]triazolo[4,5-c]pyridin-5(4H)-yl)methanone] | 8.6 | > 10 | 0.227 | – |
| CC1c2[nH]nc(C(F)(F)F)c2CCN1C(=O)c1cccc(C(F)(F)F)c1Cl (stereo not drawn) [Example 308, (2-chloro-3-(trifluoromethyl)phenyl)(7-methyl-3-(trifluoromethyl)-4,5-dihydro-1H-pyrazolo[3,4-c]pyridin-6(7H)-yl)methanone] | 22.9 | > 10 | > 10 | – |
| O=C(c1cccc(Cl)c1Cl)N1CCc2c(-c3ccc(F)cc3)n[nH]c2C1 [Example 114, 6-[(2,3-Dichlorophenyl)carbonyl]-3-(4-fluorophenyl)-4,5,6,7-tetrahydro-2H-pyrazolo[3,4-c]pyridine] | – | 1.26 | 0.0631 | 20.4 |
| Cn1nc2c(c1-c1cncnc1)CCN(C(=O)c1cccc(Cl)c1Cl)C2 [Example 329, (2,3-dichlorophenyl)(2-methyl-3-(pyrimidin-5-yl)-4,5-dihydro-2H-pyrazolo[3,4-c]pyridin-6(7H)-yl)methanone] | – | > 10 | > 10 | 99.5 |
| CC1c2ncn(-c3ccc(F)cn3)c2CCN1C(=O)c1ccccc1F (stereo not drawn) [Example 264, (2-fluorophenyl)(1-(5-fluoropyridin-2-yl)-4-methyl-6,7-dihydro-1H-imidazo[4,5-c]pyridin-5(4H)-yl)methanone] | 89.5 | > 10 | > 10 | – |
| O=C(c1cccc(C(F)(F)F)c1F)N1CCc2c(ncn2-c2ccc(F)cn2)C1 [Example 314, (2-fluoro-3-(trifluoromethyl)phenyl)(1-(5-fluoropyridin-2-yl)-6,7-dihydro-1H-imidazo[4,5-c]pyridin-5(4H)-yl)methanone] | 18.7 | > 10 | 2.83 | – |
| O=C(c1ccc(F)cc1Cl)N1CCc2c(nnn2-c2ccccn2)C1 [Example 117, (2-Chloro-4-fluorophenyl)(1-(pyridin-2-yl)-6,7-dihydro-1H-[1,2,3]triazolo[4,5-c]pyridin-5(4H)-yl)methanone] | 4.3 | > 10 | 2.22 | – |

The next lines start with the values.

| PBMC 10 μM (% control) (P2X7 [1]) | IC50 (rat P2X7) [µM] | IC50 (P2X7 [2]) [µM] | PBMC 1 μM (% control) (P2X7 [1]) | SMILES |
| --- | --- | --- | --- | --- |
| −27.6 | 2.41 | 1.19 | – | CC1c2c(nnn2-c2ccccc2)CCN1C(=O)c1cccc(C(F)(F)F)c1Cl (stereo not drawn) [Example 289, (2-chloro-3-(trifluoromethyl)phenyl)(4-methyl-3-phenyl-6,7-dihydro-3H-[1,2,3]triazolo[4,5-c]pyridin-5(4H)-yl)methanone] |
| −4.1 | 0.724 | 0.0271 | – | CC1CN(C(=O)c2cccc(C(F)(F)F)c2Cl)C(C)c2nnn(-c3ccc(F)cc3)c21 (stereo not drawn) [Example 238, (2-Chloro-3-(trifluoromethyl)phenyl)(1-(4-fluorophenyl)-4,7-dimethyl-6,7-dihydro-1H-[1,2,3]triazolo[4,5-c]pyridin-5(4H)-yl)methanone] |
| 30.9 | > 10 | 2.7 | – | C[C@@H]1c2nnn(-c3cccc(F)n3)c2CCN1C(=O)c1cccc(C(F)(F)F)c1Cl (single isomer, unassigned) [Example 146, (R*)-(2-chloro-3-(trifluoromethyl)phenyl)(1-(6-fluoropyridin-2-yl)-4-methyl-6,7-dihydro-1H-[1,2,3]triazolo[4,5-c]pyridin-5(4H)-yl)methanone] |
| −40.9 | 2 | 0.2 | – | CC1C=CN=C(n2nnc3c2CCN(C(=O)c2cccc(C(F)(F)F)c2Cl)[C@@H]3C)N1 (single isomer, unassigned) [Example 234, (4R*)-(2-Chloro-3-(trifluoromethyl)phenyl)((4R)-4-methyl-1-(6-methyl-1,6-dihydropyrimidin-2-yl)-6,7-dihydro-1H-[1,2,3]triazolo[4,5-c]pyridin-5(4H)-yl)methanone] |
| 54.1 | > 10 | > 10 | – | Cc1cnc(-n2nnc3c2CCN(C(=O)c2cccc(C(F)(F)F)c2Cl)C3C)c(C)c1 (stereo not drawn) [Example 159, (2-chloro-3-(trifluoromethyl)phenyl)(1-(3,5-dimethylpyridin-2-yl)-4-methyl-6,7-dihydro-1H-[1,2,3]triazolo[4,5-c]pyridin-5(4H)-yl)methanone] |
| 9.3 | > 10 | 1.19 | – | CC1c2nnn(-c3cncnc3)c2C=CN1C(=O)c1cccc(C(F)(F)F)c1Cl (stereo not drawn) [Example 236, (2-Chloro-3-(trifluoromethyl)phenyl)(4-methyl-1-(pyrimidin-5-yl)-1H-[1,2,3]triazolo[4,5-c]pyridin-5(4H)-yl)methanone] |
| 101.8 | > 10 | > 10 | – | C[C@@H]1c2nnn(-c3cncnc3)c2CCN1C(=O)c1cccc(C(F)(F)F)c1Cl (single isomer, unassigned) [Example 334, (R*)-(2-chloro-3-(trifluoromethyl)phenyl)(4-methyl-1-(pyrimidin-5-yl)-6,7-dihydro-1H-[1,2,3]triazolo[4,5-c]pyridin-5(4H)-yl)methanone] |
